Patent publication US8598132B2, “Glycosylated indolocarbazoles, method for obtaining same and uses thereof” (Universidad de Oviedo, priority 2008, dated 2013)

Molecular target: T1, Chk1 (Homo sapiens, UniProt O14757)
T1 construct: purchased Carna Biosciences
T1 sequence (O14757 1-476): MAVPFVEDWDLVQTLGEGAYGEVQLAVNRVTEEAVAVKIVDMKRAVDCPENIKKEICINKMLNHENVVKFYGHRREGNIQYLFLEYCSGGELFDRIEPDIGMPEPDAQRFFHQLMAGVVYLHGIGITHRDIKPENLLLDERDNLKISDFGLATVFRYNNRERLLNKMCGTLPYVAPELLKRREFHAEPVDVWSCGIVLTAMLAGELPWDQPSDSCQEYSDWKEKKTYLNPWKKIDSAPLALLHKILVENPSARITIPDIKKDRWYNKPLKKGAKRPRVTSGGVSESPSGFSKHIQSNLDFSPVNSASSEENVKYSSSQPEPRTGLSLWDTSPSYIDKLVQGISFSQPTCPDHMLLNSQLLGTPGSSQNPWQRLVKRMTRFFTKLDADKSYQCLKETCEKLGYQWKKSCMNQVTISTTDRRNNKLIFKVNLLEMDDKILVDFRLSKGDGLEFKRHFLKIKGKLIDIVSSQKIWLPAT
Test: LabChip (Caliper) kinase assay, Chk1
Format: biochemical
Conditions: for inhibition at 0.01 µM: compound at 10 nM; for inhibition at 0.01 µM / inhibition at 0.1 µM: read-out: remaining kinase activity (in %) / percentage of inhibition; for inhibition at 0.1 µM: compound at 100 nM; for IC50: ATP at Km, read-out: CI50 (the source's name)
Experimental: The analysis of kinase activity described here was performed using LabChip (Caliper Life Sciences), specifically the Caliper LC3000 and the EZ Reader II instruments.
The kinase assay used measures the conversion of a fluorescent peptide (substrate) to a phosphorylated product. The reaction mixture, in a microplate well, is introduced by a capillary in a chip where the non-phosphorylated substrate and the phosphorylated product are separated by […]. The intensity of the fluorescent signal over time is related to the reaction progress. The phosphorylated product migrates quicker than the non-phosphorylated substrate and the signals of the two forms of the peptide appear as differentiated peaks. The Caliper determines the peak height and calculates the ratio of product to the peak sum (P/(P+S)). This value is used to compare wells with compounds and wells with controls and thus determine the % of inhibition for the given product.
The followings kinases were used for the enzymatic inhibition studies, between brackets the value of the Michaelis-Menten constant, Km, of the ATP (Adenosine triphosphate) for each kinase, in μM: obtained from Carna Biosciences: MAPKAPK2 (4.6), AurA (3.6), AurB (5), PKCζ (3.8), RSK1 (23.3), PRAK (5), Erk1 (33.4), PKD2 (32.1), CK1d (16.3), CHK1 (33), ABL (61.7), FYN (36), LYNa (17), CHK2 (57.8), MET (79.5), LCK (28.5), SRC (38), GSK3β (7.3), Erk2 (62.1), PKACα (1.7), AKT2 (186.1), INSR (871.8), p38a (396.5), AKT1(48), MSK1 (21.2), PKCβ2 (84.8), ROCK2 (3.3), PIM2 (4.9), AMPK (38.6), KDR (164.8), IRAK4 (196.5), SGK1 (121.8), SYK (33.5); obtained from Invitrogen: CDK2 (57.6), BTK (123), HGK (80); obtained from Upstate: MST2 (36.6), PKGα (16), PAK2 (1.9), IGF1R (320), FGFR1 (171), MARK1 (33), CAMK2δ (22.4), c-TAK1 (66), DYRK1a (18.1), CaMK4 (3.9), FLT3 (350), c-Raf (6.2), P70S6K (95).
The compounds were dissolved in 100% DMSO and were diluted at 25 times the final concentration desired for the assay. In the case of the determination of Cl50, serial dilutions were made to reach eight concentrations and give rise to the inhibition curve. 1 μL of each concentration is transferred, in duplicate to a 384-well microplate. 12 μL of enzymatic buffer is added to each well containing purified kinase (several suppliers as indicated above), 100 mM HEPES, pH 7.5, 1 mM DTT (Calbiochem), 0.002% Brij-35 (Sigma) and also in presence of 10 mM MgCl2 as cofactor, except for INSR and IRAK4 wherein 10 mM MnCl2 is used instead of MgCl2. For the kinases CAMK26 and CAMK4, 1 mM CaCl2 and 6.7 μg/mL of calmodulin are also added. For KDR kinase, 0.05% of the CHAPSO detergent is added. For the c-Raf kinase, 10 mM MnCl2 is added. For PKCβ2 0.02 μg/mL of PS/PMA is added. For PKGα se 10 μM of cGMP (cyclic guanosine monophosphate) is added. The compound and the enzyme are left for 15 minutes preincubation and, then, the following are added to each well: 12 μL of peptide buffer/ATP containing 100 mM HEPES, pH 7.5, 1.5 μM peptide marker with fluorescein (specific for the corresponding kinase), ATP (at concentration KM), and 0.002% Brij-35 to start the reaction. Generally, the reactions are incubated for 1-1.5 h at ambient temperature to obtain an adequate conversion (15-40%) of the peptide to the phosphorylated product. The reactions were ended by the addition of 45 μL of buffer containing 0 mM EDTA. The microplates were read by the LabChip 3000 using a 12-channel LabChip. The P/(P+S) values were obtained as described above and the CI50 curves were generated using XIfit.
Table 9a has the 0150 data obtained in pairs of compound-kinase selected from the compounds of formula (VII), (VIII), (IX), (XVI), (XVII) and (XVIII) after taking inhibition measurements at 100 nM and 10 nM. Those couples that provide >70% of inhibition at 10 nM were consider for measuring its IC50. […]

| Structure (SMILES) | inhibition at 0.01 µM [%] | inhibition at 0.1 µM [%] | IC50 [nM] |
| --- | --- | --- | --- |
| C[C@@H]1O[C@@H](n2c3ccccc3c3c4c(c5c6ccccc6[nH]c5c32)C(=O)NC4=O)[C@H](O)[C@H](O)[C@H]1O [formula (III), N^13-1′-β-L-rhamnosylarcyriaflavin] | -3 | 15 | – |
| C[C@@H]1O[C@@H](n2c3ccccc3c3c4c(c5c6ccccc6[nH]c5c32)C(=O)NC4=O)C[C@H](O)[C@H]1O [formula (IV), N^13-1′-β-L-olivosylarcyriaflavin] | 5 | 35 | – |
| C[C@@H]1O[C@@H](n2c3ccccc3c3c4c(c5c6ccccc6[nH]c5c32)C(=O)NC4=O)C[C@@H](O)[C@H]1O [formula (V), N^13-1′-β-L-digitoxosylarcyriaflavin] | 45 | 81 | – |
| C[C@H]1O[C@@H](n2c3ccccc3c3c4c(c5c6ccccc6[nH]c5c32)C(=O)NC4=O)C[C@@H](O)[C@@H]1O [formula (VI), N^13-1′-β-D-olivosylarcyriaflavin] | 2 | 50 | – |
| C[C@]12O[C@H]([C@H](O)[C@H](O)[C@H]1O)n1c3ccccc3c3c4c(c5c6ccccc6n2c5c31)C(=O)NC4=O [formula (VII), N^12-5′(S)-N^13-1′-(R)-L-rhamnosylarcyriaflavin] | – | – | 1 |
| C[C@]12O[C@H](C[C@H](O)[C@H]1O)n1c3ccccc3c3c4c(c5c6ccccc6n2c5c31)C(=O)NC4=O [formula (VIII), N^12-5′(S)-N^13-1′-(R)-L-olivosylarcyriaflavin] | – | – | 4.9 |
| C[C@@H]1O[C@@H](n2c3ccccc3c3c4c(c5c6ccccc6[nH]c5c32)CNC4=O)[C@H](O)[C@H](O)[C@H]1O [formula (XII), N^13-1′-β-L-rhamnosyl-k252c] | 2 | 8 | – |
| C[C@@H]1O[C@@H](n2c3ccccc3c3c4c(c5c6ccccc6[nH]c5c32)CNC4=O)C[C@H](O)[C@H]1O [formula (XIII), N^13-1′-β-L-olivosyl-k252c] | 1 | 27 | – |
| C[C@@H]1O[C@@H](n2c3ccccc3c3c4c(c5c6ccccc6[nH]c5c32)CNC4=O)C[C@@H](O)[C@H]1O [formula (XIV), N^13-1′-β-L-digitoxosyl-k252c] | 6 | 46 | – |
| C[C@H]1O[C@@H](n2c3ccccc3c3c4c(c5c6ccccc6[nH]c5c32)CNC4=O)C[C@@H](O)[C@@H]1O [formula (XV), N^13-1′-β-D-olivosyl-k252c] | 4 | 20 | – |
| C[C@]12O[C@H]([C@H](O)[C@H](O)[C@H]1O)n1c3ccccc3c3c4c(c5c6ccccc6n2c5c31)CNC4=O [formula (XVI), N^12-5′(S)-N^13-1′-(R)-L-rhamnosyl-k252c] | – | – | 2.4 |
| C[C@]12O[C@H](C[C@@H](O)[C@H]1O)n1c3ccccc3c3c4c(c5c6ccccc6n2c5c31)CNC4=O [formula (XVIII), N^12-5′(S)-N^13-1′-(R)-L-digitoxosyl-k252c] | – | – | > 10 |
